According to ChEMBL document CHEMBL2150933 (J Med Chem, 2012):

Legend:
[1] = test system: CAKI-1; assay: Cytotoxicity against human Caki1 cells after 48 hrs by SRB assay; format: functional; conditions: CAKI-1, 48 h
[2] = test system: ACHN; assay: Cytotoxicity against human ACHN cells after 48 hrs by SRB assay; format: functional
[3] = test system: OVCAR-4; assay: Cytotoxicity against human OVCAR4 cells after 48 hrs by SRB assay; format: functional; conditions: OVCAR-4, 48 h
[4] = test system: RPMI-8226; assay: Cytotoxicity against human RPMI8226 cells after 48 hrs by SRB assay; format: functional; conditions: RPMI-8226, 48 h
[5] = test system: SR; assay: Cytotoxicity against human SR cells after 48 hrs by SRB assay; format: functional
[6] = test system: COLO 205; assay: Cytotoxicity against human COLO205 cells after 48 hrs by SRB assay; format: functional; conditions: COLO 205, 48 h
[7] = test system: BT-549; assay: Cytotoxicity against human BT549 cells after 48 hrs by SRB assay; format: functional; conditions: BT-549, 48 h
[8] = test system: LOX IMVI; assay: Cytotoxicity against human LOXIMVI cells after 48 hrs by SRB assay; format: functional
[9] = test system: UACC-257; assay: Cytotoxicity against human UACC257 cells after 48 hrs by SRB assay; format: functional; conditions: UACC-257, 48 h
[10] = test system: MOLT-4; assay: Cytotoxicity against human MOLT4 cells after 48 hrs by SRB assay; format: functional; conditions: MOLT-4, 48 h
[11] = test system: SK-MEL-28; assay: Cytotoxicity against human SK-MEL-28 cells after 48 hrs by SRB assay; format: functional; conditions: SK-MEL-28, 48 h
[12] = test system: SNB-19; assay: Cytotoxicity against human SNB19 cells after 48 hrs by SRB assay; format: functional; conditions: SNB-19, 48 h
[13] = test system: HCC 2998; assay: Cytotoxicity against human HCC2998 cells after 48 hrs by SRB assay; format: functional; conditions: HCC 2998, 48 h
[14] = test system: HL-60; assay: Cytotoxicity against human HL60 cells after 48 hrs by SRB assay; format: functional; conditions: HL-60, 48 h
[15] = test system: Malme-3M; assay: Cytotoxicity against human MALME-3M cells after 48 hrs by SRB assay; format: functional
[16] = test system: NCI-H226; assay: Cytotoxicity against human NCI-H226 cells after 48 hrs by SRB assay; format: functional; conditions: NCI-H226, 48 h
[17] = test system: MDA-MB-468; assay: Cytotoxicity against human MDA-MB-468 cells after 48 hrs by SRB assay; format: functional; conditions: MDA-MB-468, 48 h
[18] = test system: OVCAR-8; assay: Cytotoxicity against human OVCAR8 cells after 48 hrs by SRB assay; format: functional; conditions: OVCAR-8, 48 h
[19] = test system: UO-31; assay: Cytotoxicity against human UO31 cells after 48 hrs by SRB assay; format: functional; conditions: UO-31, 48 h
[20] = test system: TK-10; assay: Cytotoxicity against human TK10 cells after 48 hrs by SRB assay; format: functional; conditions: TK-10, 48 h
[21] = test system: SK-MEL-2; assay: Cytotoxicity against human SK-MEL-2 cells after 48 hrs by SRB assay; format: functional; conditions: SK-MEL-2, 48 h
[22] = test system: MDA-MB-435; assay: Cytotoxicity against human MDA-MB-435 cells after 48 hrs by SRB assay; format: functional; conditions: MDA-MB-435, 48 h
[23] = test system: HCT-116; assay: Cytotoxicity against human HCT116 cells after 48 hrs by SRB assay; format: functional; conditions: HCT-116, 48 h
[24] = test system: SF-539; assay: Cytotoxicity against human SF539 cells after 48 hrs by SRB assay; format: functional; conditions: SF-539, 48 h
[25] = test system: UACC-62; assay: Cytotoxicity against human UACC62 cells after 48 hrs by SRB assay; format: functional; conditions: UACC-62, 48 h
[26] = test system: NCI-H460; assay: Cytotoxicity against human NCI-H460 cells after 48 hrs by SRB assay; format: functional; conditions: NCI-H460, 48 h
[27] = test system: NCI-H23; assay: Cytotoxicity against human NCI-H23 cells after 48 hrs by SRB assay; format: functional; conditions: NCI-H23, 48 h
[28] = test system: PC-3; assay: Cytotoxicity against human PC3 cells after 48 hrs by SRB assay; format: functional; conditions: PC-3, 48 h
[29] = test system: MCF7; assay: Cytotoxicity against human MCF7 cells after 48 hrs by SRB assay; format: functional; conditions: MCF7, 48 h
[30] = test system: SW-620; assay: Cytotoxicity against human SW620 cells after 48 hrs by SRB assay; format: functional; conditions: SW-620, 48 h
[31] = Cytotoxicity against human NCI-ADR-RES cells after 48 hrs by SRB assay; format: functional
[32] = test system: HOP-92; assay: Cytotoxicity against human HOP92 cells after 48 hrs by SRB assay; format: functional; conditions: HOP-92, 48 h
[33] = test system: A549; assay: Cytotoxicity against human A549 cells after 72 hrs by MTT assay; format: functional; conditions: A549, 72 h
[34] = test system: K562; assay: Cytotoxicity against human K562 cells after 48 hrs by SRB assay; format: functional; conditions: K562, 48 h
[35] = test system: DU-145; assay: Cytotoxicity against human DU145 cells after 48 hrs by SRB assay; format: functional; conditions: DU-145, 48 h
[36] = test system: M14; assay: Cytotoxicity against human M14 cells after 48 hrs by SRB assay; format: functional; conditions: M14, 48 h
[37] = test system: SNB-75; assay: Cytotoxicity against human SNB75 cells after 48 hrs by SRB assay; format: functional; conditions: SNB-75, 48 h
[38] = test system: HCT-15; assay: Cytotoxicity against human HCT15 cells after 48 hrs by SRB assay; format: functional; conditions: HCT-15, 48 h
[39] = test system: CCRF-CEM; assay: Cytotoxicity against human CCRF-CEM cells after 48 hrs by SRB assay; format: functional
[40] = test system: T47D; assay: Cytotoxicity against human T47D cells after 48 hrs by SRB assay; format: functional
[41] = test system: SK-MEL-5; assay: Cytotoxicity against human SK-MEL-5 cells after 48 hrs by SRB assay; format: functional; conditions: SK-MEL-5, 48 h
[42] = test system: HOP-62; assay: Cytotoxicity against human HOP62 cells after 48 hrs by SRB assay; format: functional; conditions: HOP-62, 48 h
[43] = test system: MDA-MB-231; assay: Cytotoxicity against human MDA-MB-231 cells after 48 hrs by SRB assay; format: functional; conditions: MDA-MB-231, 48 h
[44] = test system: BXPC-3; assay: Cytotoxicity against human BxPC3 cells after 72 hrs by MTT assay; format: functional; conditions: BXPC-3, 72 h
[45] = test system: U-251; assay: Cytotoxicity against human U251 cells after 48 hrs by SRB assay; format: functional; conditions: U-251, 48 h
[46] = test system: SN12C; assay: Cytotoxicity against human SN12C cells after 48 hrs by SRB assay; format: functional
[47] = test system: SF-295; assay: Cytotoxicity against human SF295 cells after 48 hrs by SRB assay; format: functional; conditions: SF-295, 48 h
[48] = test system: IGROV-1; assay: Cytotoxicity against human IGROV1 cells after 48 hrs by SRB assay; format: functional; conditions: IGROV-1, 48 h
[49] = test system: HT-29; assay: Cytotoxicity against human HT-29 cells after 48 hrs by SRB assay; format: functional; conditions: HT-29, 48 h
[50] = test system: OVCAR-3; assay: Cytotoxicity against human OVCAR3 cells after 48 hrs by SRB assay; format: functional; conditions: OVCAR-3, 48 h
[51] = test system: COLO 205; assay: Cytotoxicity against human COLO205 cells after 72 hrs by MTT assay; format: functional; conditions: COLO 205, 72 h
[52] = test system: OVCAR-5; assay: Cytotoxicity against human OVCAR5 cells after 48 hrs by SRB assay; format: functional; conditions: OVCAR-5, 48 h
[53] = test system: RXF 393; assay: Cytotoxicity against human RXF393 cells after 48 hrs by SRB assay; format: functional; conditions: RXF 393, 48 h
[54] = Toxicity in iv dosed CD1 mouse administered as single dose; format: organism-based; conditions: in vivo
[55] = test system: A498; assay: Cytotoxicity against human A498 cells after 48 hrs by SRB assay; format: functional; conditions: A498, 48 h
[56] = test system: KM12; assay: Cytotoxicity against human KM12 cells after 48 hrs by SRB assay; format: functional; conditions: KM12, 48 h
[57] = test system: SF-268; assay: Cytotoxicity against human SF268 cells after 48 hrs by SRB assay; format: functional; conditions: SF-268, 48 h
[58] = Cytotoxicity against human 786-O cells after 48 hrs by SRB assay; format: functional; conditions: 786-0, 48 h
[59] = test system: SK-OV-3; assay: Cytotoxicity against human SKOV3 cells after 48 hrs by SRB assay; format: functional; conditions: SK-OV-3, 48 h
[60] = test system: NCI-H522; assay: Cytotoxicity against human NCI-H522 cells after 48 hrs by SRB assay; format: functional; conditions: NCI-H522, 48 h
[61] = test system: A549; assay: Cytotoxicity against human A549 cells after 48 hrs by SRB assay; format: functional; conditions: A549, 48 h
[62] = test system: Hs-578T; assay: Cytotoxicity against human Hs578T cells after 48 hrs by SRB assay; format: functional
[63] = test system: EKVX; assay: Cytotoxicity against human EKVX cells after 48 hrs by SRB assay; format: functional

Structure (SMILES): CO[C@H](C(=O)C(C)=O)[C@@H]1Cc2cc3cc(O[C@H]4C[C@@H](O[C@H]5C[C@@H](O)[C@H](O)[C@@H](C)O5)[C@H](O)[C@@H](C)O4)c(C)c(O)c3c(O)c2C(=O)[C@H]1O[C@H]1C[C@@H](O[C@H]2C[C@@H](O[C@H]3C[C@H](O)[C@H](O)[C@@H](C)O3)[C@H](O)[C@@H](C)O2)[C@H](O)[C@@H](C)O1
- GI50 [1]: 126 nM
- GI50 [2]: 74.1 nM
- GI50 [3]: 72.4 nM
- GI50 [4]: 15.8 nM
- GI50 [5]: 11.8 nM
- GI50 ([6]; read-out: GI50): 32 nM
- GI50 ([6]; read-out: pGI50 (converted)): 30.2 nM
- GI50 [7]: 13.5 nM
- GI50 [8]: 13.5 nM
- GI50 [9]: 58.9 nM
- GI50 [10]: 27.5 nM
- GI50 [11]: 20.9 nM
- GI50 [12]: 17 nM
- GI50 [13]: 12.9 nM
- GI50 [14]: 17.4 nM
- GI50 [15]: 34.7 nM
- GI50 [16]: 34.7 nM
- GI50 [17]: 23.4 nM
- GI50 ([18]; read-out: pGI50 (converted)): 25.7 nM
- GI50 [19]: 126 nM
- GI50 [20]: 85.1 nM
- GI50 [21]: 15.1 nM
- GI50 [22]: 25.1 nM
- GI50 [23]: 14.8 nM
- GI50 [24]: 20.9 nM
- GI50 [25]: 13.5 nM
- GI50 [26]: 17.8 nM
- GI50 [27]: 14.8 nM
- GI50 [28]: 22.9 nM
- GI50 [29]: 19.9 nM
- GI50 [30]: 24 nM
- GI50 [31]: 1660 nM
- GI50 [32]: 19.9 nM
- GI50 [33]: 300 nM
- GI50 [34]: 19.5 nM
- GI50 [35]: 25.1 nM
- GI50 [36]: 36.3 nM
- GI50 [37]: 11 nM
- GI50 [38]: 182 nM
- GI50 [39]: 24 nM
- GI50 [40]: 33.9 nM
- GI50 ([41]; read-out: pGI50 (converted)): 22.4 nM
- GI50 [42]: 16.6 nM
- GI50 ([43]; read-out: GI50): 63 nM
- GI50 ([43]; read-out: pGI50 (converted)): 66.1 nM
- GI50 [44]: 300 nM
- GI50 ([45]; read-out: pGI50 (converted)): 17.4 nM
- GI50 [46]: 24.6 nM
- GI50 ([47]; read-out: pGI50 (converted)): 17 nM
- GI50 ([48]; read-out: pGI50 (converted)): 23.4 nM
- GI50 [49]: 24.6 nM
- GI50 [50]: 19.9 nM
- GI50 [51]: 300 nM
- GI50 [52]: 30.9 nM
- GI50 [53]: 13.5 nM
- MTD [54]: 4 mg/kg
- GI50 [55]: 47.9 nM
- GI50 [56]: 12.9 nM
- GI50 [57]: 18.6 nM
- GI50 [58]: 25.1 nM
- GI50 [59]: 25.1 nM
- GI50 [60]: 19.9 nM
- GI50 ([61]; read-out: pGI50 (converted)): 24.6 nM
- GI50 [62]: 16.2 nM
- GI50 [63]: 91.2 nM

Structure (SMILES): CO[C@H](C(=O)[C@@H](O)[C@@H](C)O)[C@@H]1Cc2cc3cc(O[C@H]4C[C@@H](O[C@@H]5C[C@@H](O)[C@H](O)[C@@H](C)O5)[C@H](O)[C@@H](C)O4)c(C)c(O)c3c(O)c2C(=O)[C@H]1O[C@H]1C[C@@H](O[C@@H]2C[C@@H](O)[C@@H](O[C@@H]3C[C@](C)(O)[C@H](O)[C@@H](C)O3)[C@@H](C)O2)[C@H](O)[C@@H](C)O1 [PLICAMYCIN]
- GI50 ([6]; read-out: GI50): 63 nM
- GI50 ([18]; read-out: GI50): 79 nM
- GI50 ([41]; read-out: GI50): 63 nM
- GI50 ([43]; read-out: GI50): 166 nM
- GI50 ([45]; read-out: GI50): 63 nM
- GI50 ([47]; read-out: GI50): 79 nM
- GI50 ([48]; read-out: GI50): 158 nM
- GI50 ([61]; read-out: GI50): 79 nM
